What all share (test): KinomeScan kinase panel, single concentration 10 µM
Type in all cases: binding

The target in assay [1] is T1, KinomeScan kinase panel (Homo sapiens, UniProt Q9H093).
T1 construct: purchased DiscoveRx (KinomeScan)
T1 sequence (Q9H093 1-628): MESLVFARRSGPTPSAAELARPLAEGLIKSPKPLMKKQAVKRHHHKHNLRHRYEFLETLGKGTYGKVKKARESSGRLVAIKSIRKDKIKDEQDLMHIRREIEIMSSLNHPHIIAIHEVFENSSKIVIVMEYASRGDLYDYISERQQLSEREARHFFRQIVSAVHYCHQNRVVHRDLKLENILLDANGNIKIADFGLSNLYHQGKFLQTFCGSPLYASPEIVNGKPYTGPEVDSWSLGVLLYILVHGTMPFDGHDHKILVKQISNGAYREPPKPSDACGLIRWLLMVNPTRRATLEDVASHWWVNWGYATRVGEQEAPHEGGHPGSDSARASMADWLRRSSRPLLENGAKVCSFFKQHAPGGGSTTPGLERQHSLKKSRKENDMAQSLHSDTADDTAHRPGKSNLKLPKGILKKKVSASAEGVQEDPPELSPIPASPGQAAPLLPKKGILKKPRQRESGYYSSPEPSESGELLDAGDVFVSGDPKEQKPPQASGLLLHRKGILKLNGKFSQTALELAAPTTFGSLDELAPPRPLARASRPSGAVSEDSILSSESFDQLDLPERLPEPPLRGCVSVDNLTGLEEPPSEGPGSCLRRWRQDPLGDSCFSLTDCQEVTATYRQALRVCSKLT
The conditions noted are these: 10 µM.

Assay [2] has as its target T2, KinomeScan kinase panel (Homo sapiens, UniProt Q13188).
T2 construct: purchased DiscoveRx (KinomeScan)
T2 sequence (Q13188 1-491): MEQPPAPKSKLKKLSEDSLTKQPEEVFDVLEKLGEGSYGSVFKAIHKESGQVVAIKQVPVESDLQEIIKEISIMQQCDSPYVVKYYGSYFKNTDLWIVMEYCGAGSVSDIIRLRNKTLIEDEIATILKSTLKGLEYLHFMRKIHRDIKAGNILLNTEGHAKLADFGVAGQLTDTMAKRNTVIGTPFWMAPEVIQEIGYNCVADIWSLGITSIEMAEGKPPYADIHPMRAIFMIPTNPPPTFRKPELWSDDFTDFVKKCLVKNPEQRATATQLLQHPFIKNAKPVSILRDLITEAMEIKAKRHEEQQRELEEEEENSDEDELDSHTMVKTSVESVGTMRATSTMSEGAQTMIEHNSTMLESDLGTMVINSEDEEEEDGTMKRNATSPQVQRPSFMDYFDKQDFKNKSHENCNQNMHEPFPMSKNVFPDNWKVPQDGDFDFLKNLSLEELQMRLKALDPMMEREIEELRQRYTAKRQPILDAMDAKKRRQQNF
The settings on record: MST2, 10 µM; read-out: score (%).

Assay [3] has as its target T3, KinomeScan kinase panel (Homo sapiens, UniProt P53355).
T3 construct: purchased DiscoveRx (KinomeScan)
The conditions noted are these: DAPK1, 10 µM; read-out: score (%).

Assay [4] addresses T4, KinomeScan kinase panel (Homo sapiens, UniProt P37023).
T4 construct: purchased DiscoveRx (KinomeScan)
The settings on record: ACVRL1, 10 µM; read-out: score (%).

Assay [5] deals with T5, KinomeScan kinase panel (Homo sapiens, UniProt Q15831).
T5 construct: purchased DiscoveRx (KinomeScan)
T5 sequence (Q15831 1-433): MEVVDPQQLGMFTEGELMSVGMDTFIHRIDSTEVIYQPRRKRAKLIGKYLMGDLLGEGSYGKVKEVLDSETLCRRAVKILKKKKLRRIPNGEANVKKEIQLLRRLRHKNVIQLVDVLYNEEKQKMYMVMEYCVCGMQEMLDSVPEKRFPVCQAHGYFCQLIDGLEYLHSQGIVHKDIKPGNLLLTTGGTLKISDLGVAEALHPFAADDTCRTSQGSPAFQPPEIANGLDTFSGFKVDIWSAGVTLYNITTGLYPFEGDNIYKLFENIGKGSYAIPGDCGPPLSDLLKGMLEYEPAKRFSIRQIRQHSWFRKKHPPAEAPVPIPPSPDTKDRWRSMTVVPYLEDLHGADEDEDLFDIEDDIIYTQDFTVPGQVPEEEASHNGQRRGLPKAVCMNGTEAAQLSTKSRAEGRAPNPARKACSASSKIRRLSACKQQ
The settings on record: LKB1, 10 µM; read-out: score (%).

For assay [6], the target named is T6, KinomeScan kinase panel (Homo sapiens, UniProt Q02779).
T6 construct: purchased DiscoveRx (KinomeScan)
T6 sequence (Q02779 whole entry): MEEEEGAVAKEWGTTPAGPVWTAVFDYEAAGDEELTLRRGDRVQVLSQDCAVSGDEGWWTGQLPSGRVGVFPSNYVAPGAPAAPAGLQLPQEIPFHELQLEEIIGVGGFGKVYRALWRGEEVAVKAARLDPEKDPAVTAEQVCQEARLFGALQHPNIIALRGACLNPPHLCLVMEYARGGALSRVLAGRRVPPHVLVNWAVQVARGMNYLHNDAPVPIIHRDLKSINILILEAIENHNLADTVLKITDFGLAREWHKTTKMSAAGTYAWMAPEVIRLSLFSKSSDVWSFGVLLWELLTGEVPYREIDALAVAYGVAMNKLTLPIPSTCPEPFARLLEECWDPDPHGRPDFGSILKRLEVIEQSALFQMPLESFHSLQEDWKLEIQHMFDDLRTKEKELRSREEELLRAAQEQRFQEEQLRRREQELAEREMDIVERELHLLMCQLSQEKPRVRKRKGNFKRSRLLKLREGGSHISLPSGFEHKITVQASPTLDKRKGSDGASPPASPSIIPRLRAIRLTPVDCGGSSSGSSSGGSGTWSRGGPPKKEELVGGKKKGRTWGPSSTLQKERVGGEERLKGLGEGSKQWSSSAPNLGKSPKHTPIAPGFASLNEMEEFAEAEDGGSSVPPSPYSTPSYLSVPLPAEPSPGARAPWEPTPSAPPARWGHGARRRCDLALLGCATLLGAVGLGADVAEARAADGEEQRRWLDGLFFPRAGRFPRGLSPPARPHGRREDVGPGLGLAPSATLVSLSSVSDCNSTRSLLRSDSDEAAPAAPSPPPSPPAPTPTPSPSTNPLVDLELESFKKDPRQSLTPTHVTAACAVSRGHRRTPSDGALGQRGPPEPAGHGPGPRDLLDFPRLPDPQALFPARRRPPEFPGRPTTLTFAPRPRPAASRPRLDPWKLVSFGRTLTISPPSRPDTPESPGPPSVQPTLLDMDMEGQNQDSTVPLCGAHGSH
The conditions noted are these: MLK2, 10 µM; read-out: score (%).

The target of assay [7] is T7, KinomeScan kinase panel (Homo sapiens, UniProt P35916).
T7 construct: purchased DiscoveRx (KinomeScan)
T7 sequence (P35916 25-1363): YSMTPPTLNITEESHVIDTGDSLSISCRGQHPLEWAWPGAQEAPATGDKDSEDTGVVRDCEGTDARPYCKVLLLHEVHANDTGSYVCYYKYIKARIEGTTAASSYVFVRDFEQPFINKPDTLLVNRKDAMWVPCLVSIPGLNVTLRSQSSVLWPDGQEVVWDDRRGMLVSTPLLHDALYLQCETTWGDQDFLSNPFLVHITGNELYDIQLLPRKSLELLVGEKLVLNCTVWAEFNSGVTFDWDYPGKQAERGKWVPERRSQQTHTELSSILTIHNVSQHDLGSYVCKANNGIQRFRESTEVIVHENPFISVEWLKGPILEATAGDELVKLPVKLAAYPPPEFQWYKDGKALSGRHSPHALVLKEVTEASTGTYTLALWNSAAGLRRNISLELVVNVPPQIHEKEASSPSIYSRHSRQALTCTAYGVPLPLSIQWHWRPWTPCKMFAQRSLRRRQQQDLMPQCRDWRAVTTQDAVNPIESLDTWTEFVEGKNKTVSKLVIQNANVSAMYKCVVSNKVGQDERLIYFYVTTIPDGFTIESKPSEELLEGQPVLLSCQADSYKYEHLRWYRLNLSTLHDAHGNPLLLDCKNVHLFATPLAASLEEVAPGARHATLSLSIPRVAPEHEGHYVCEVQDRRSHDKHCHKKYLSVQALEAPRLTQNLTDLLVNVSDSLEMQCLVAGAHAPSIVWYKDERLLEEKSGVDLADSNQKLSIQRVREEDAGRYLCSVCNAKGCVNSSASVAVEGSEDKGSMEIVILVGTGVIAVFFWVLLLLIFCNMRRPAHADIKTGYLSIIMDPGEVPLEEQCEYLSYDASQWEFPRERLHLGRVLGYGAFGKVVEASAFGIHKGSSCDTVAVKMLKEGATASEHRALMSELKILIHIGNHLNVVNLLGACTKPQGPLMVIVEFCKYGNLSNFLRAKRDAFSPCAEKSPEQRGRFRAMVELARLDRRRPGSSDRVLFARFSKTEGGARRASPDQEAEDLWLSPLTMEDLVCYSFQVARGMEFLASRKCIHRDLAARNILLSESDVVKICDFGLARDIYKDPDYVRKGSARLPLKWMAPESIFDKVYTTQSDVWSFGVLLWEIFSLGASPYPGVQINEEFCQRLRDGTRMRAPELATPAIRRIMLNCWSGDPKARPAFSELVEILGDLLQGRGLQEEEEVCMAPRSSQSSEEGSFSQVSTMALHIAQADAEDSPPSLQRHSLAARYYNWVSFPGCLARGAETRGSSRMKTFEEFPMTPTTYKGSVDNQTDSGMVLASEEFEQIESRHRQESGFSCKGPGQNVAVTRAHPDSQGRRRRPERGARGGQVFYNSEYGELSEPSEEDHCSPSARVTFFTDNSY
The settings on record: FLT4, 10 µM; read-out: score (%).

T3 sequence (P53355 whole entry): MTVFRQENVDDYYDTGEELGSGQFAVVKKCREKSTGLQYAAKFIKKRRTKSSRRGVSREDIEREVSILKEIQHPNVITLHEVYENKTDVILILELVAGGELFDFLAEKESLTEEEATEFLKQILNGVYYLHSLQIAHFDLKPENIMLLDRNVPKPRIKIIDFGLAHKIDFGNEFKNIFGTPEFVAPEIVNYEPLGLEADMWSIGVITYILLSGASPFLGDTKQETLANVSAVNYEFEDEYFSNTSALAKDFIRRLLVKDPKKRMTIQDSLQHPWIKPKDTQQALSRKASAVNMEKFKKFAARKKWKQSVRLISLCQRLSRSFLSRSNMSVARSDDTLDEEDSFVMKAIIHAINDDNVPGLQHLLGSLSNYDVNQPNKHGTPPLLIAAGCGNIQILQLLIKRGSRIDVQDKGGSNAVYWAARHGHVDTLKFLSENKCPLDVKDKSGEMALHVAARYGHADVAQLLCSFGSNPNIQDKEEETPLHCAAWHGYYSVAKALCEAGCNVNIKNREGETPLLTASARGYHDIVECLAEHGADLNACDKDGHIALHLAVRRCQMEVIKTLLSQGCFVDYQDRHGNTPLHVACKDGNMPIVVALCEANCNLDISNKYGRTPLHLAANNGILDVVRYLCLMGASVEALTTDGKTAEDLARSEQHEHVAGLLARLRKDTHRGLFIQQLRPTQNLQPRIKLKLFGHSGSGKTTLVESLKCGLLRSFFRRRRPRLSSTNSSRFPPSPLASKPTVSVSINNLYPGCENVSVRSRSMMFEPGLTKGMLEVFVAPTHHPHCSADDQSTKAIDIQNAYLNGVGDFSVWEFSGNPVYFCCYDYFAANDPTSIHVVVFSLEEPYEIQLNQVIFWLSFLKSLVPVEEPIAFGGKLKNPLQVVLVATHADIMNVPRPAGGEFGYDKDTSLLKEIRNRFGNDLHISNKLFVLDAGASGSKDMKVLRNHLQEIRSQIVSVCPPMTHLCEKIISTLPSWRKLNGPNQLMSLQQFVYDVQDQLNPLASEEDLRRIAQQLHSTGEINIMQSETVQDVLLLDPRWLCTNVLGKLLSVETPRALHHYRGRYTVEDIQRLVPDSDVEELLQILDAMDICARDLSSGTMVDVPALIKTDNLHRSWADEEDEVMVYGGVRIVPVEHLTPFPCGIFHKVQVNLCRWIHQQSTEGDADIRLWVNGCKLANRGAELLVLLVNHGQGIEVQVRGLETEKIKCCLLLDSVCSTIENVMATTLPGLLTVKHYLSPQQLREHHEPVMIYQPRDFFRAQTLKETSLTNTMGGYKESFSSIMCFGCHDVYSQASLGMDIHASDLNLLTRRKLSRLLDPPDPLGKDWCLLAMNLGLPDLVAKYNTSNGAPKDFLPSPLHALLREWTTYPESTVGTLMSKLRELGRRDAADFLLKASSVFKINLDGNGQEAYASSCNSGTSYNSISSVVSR
T4 sequence (P37023 22-503): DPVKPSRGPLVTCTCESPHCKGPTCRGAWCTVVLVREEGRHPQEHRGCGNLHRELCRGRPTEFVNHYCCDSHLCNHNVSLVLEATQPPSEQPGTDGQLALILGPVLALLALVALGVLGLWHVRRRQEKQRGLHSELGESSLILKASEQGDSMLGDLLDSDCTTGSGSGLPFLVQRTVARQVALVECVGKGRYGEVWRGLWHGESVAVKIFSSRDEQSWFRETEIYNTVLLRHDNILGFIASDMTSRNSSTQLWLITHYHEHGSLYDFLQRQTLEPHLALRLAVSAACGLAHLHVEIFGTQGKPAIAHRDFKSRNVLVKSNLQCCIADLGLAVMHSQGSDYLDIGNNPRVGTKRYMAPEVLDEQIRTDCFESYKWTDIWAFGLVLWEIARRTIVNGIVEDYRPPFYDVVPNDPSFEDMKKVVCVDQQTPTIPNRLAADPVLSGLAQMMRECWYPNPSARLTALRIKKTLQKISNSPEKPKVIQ

Turning to `CCN1CCN(Cc2ccc(NC(=O)c3ccc(C)c(NC(=O)c4cncc(-c5cccs5)c4)c3)cc2C(F)(F)F)CC1` [ALW-II-41-27], the “score (%)” value at KinomeScan kinase panel [1] (kinase SNARK) was “nb (Hits values higher than 30% were considered negative (no binding: nb))”. Further, the remaining binding at 10 µM was greater than 30% on KinomeScan kinase panel [2]; greater than 30% at KinomeScan kinase panel [3]; greater than 30% on KinomeScan kinase panel [4]; greater than 30% at KinomeScan kinase panel [5]; greater than 30% at KinomeScan kinase panel [6]; 0% on KinomeScan kinase panel [7].

On to `CCN1CCN(Cc2ccc(NC(=O)c3ccc(C)c(/C=C/c4cnc5[nH]ccc5c4Cl)c3)cc2C(F)(F)F)CC1` [HG-6-63-01, (E)-3-(2-(4-chloro-1H-pyrrolo[2,3-b]pyridin-5-yl)vinyl)-N-(4-((4-ethylpiperazin-1-yl)methyl)-3-(trifluoromethyl)phenyl)-4-methylbenzamide], for which, at KinomeScan kinase panel [1] (SNARK), the “score (%)” value is on record as “nb (Hits values higher than 30% were considered negative (no binding: nb))”. Moreover, the remaining binding at 10 µM was 10% on KinomeScan kinase panel [2]; greater than 30% at KinomeScan kinase panel [3]; greater than 30% on KinomeScan kinase panel [4]; 29% at KinomeScan kinase panel [5]; 20% on KinomeScan kinase panel [6]; 0.15% at KinomeScan kinase panel [7].

As to `CCN1CCN(Cc2ccc(NC(=O)c3ccc(C)c(C#Cc4cccnc4)c3)cc2C(F)(F)F)CC1` [XMD15-44], the “score (%)” value on KinomeScan kinase panel [1] (kinase SNARK) is on record as 99%. Moreover, the remaining binding at 10 µM at KinomeScan kinase panel [2] is greater than 30%; at KinomeScan kinase panel [3], greater than 30%; on KinomeScan kinase panel [4] it was greater than 30%; on KinomeScan kinase panel [5], greater than 30%; at KinomeScan kinase panel [6] it was greater than 30%; on KinomeScan kinase panel [7], 0%.

The values are drawn from paper PMC4457528, “Identification of Novel Small Molecule Inhibitors of Oncogenic RET Kinase” (PLoS ONE, 2015).
